Consider three molecules from EP4782434A1, “N-SULFONYL CARBOXAMIDE COMPOUND, AND PREPARATION METHOD THEREFOR AND USE THEREOF” (Nutshell Therapeutics (Shanghai) Co., Ltd., priority 2023, dated 2025).

By solubility is commonly meant the dissolved amount per volume that the medium holds. Lower therefore signals little dissolved substance. In general, AUC(0-t) refers to exposure summed from dosing to a finite time, without extrapolation to infinity. Higher therefore signals high exposure. One may read the Cmax as the maximum level reached in the sampled fluid or tissue.

Series [1] can be described thus: Thermodynamic solubility determination in FaSSIF. The series is classed as physicochemical. The conditions noted are these: thermodynamic from solid, FaSSIF pH 6.5, 37°C. How it is done:
• (1) The control compound, diclofenac sodium, was purchased from Sigma. • (2) FaSSIF, FeSSIF & FaSSGF (FFF02) powders were purchased from Biorelevant. • (3) 1.5 mL flat-bottom glass vials (purchased from local suppliers); PTFE/silicone septa (BioTech Solutions); PTFE-coated stir bars (V&P Scientific); MultiScreenHTS HV (0.45 µm) 96-well plates (Millipore, MSHVN4510 or MSHVN4550); Eppendorf Thermomixer Comfort; Vacuum Manifold ORVMN96 (Orochem).
0.420 g of NaOH, 3.438 g of NaH2PO4, and 6.186 g of NaCl were dissolved in approximately 900 mL of ultrapure water, and the pH of the solution was adjusted to 6.5 using 1N NaOH or 1N HCl. The solution was then diluted to 1000 mL with ultrapure water at room temperature.
2.240 g of FaSSIF, FeSSIF, and FaSSGF powder was added to approximately 500 mL of Buffer A. The mixture was stirred until the powder was completely dissolved. The solution was then diluted to 1000 mL with Buffer A at room temperature.
The solution was allowed to stand for 2 hours. The solution became slightly opalescent and was ready for use at that point. Note: it was to be used within 48 hours at room temperature or within 24 hours at 37°C.
(2) The test compounds and control compounds were weighed for solubility measurement (approximately 1.0 mg each in three separate 1.5 mL glass vials).
(3) For each compound, one vial served as a standard, and the other two vials were used for solubility measurement in duplicate.
(4) Each compound was placed sequentially into its appropriate 96-well plate. One plate served as the standard plate and the other as the sample plate.
(5) Based on the mass of the sample in each vial on the sample plate, an appropriate volume (approximately 1000 µL) of FaSSIF was added to each vial of the solubility sample plate using a pipette. […]
All calculations were performed using Microsoft Excel. Analysis and quantification of the sample filtrates were completed via LC-MS/MS by qualitative and quantitative comparison against the peaks of standards with known concentrations. […]

Series [2] is described as follows: Pharmacokinetic study in rats. It is filed as in vivo. To be noted: rat, plasma; male Wistar-Han rats, dose 30 mg/kg; route not stated in the table (oral gavage vehicle given). As for the experimental part:
• 1. Experimental objective: To test the pharmacokinetics of the compounds in in vivo experiments using Wistar-Han rats. • 2. Experimental instruments and materials:
Animal: Wistar-Han rats (male)
Oral gavage: 1% methylcellulose aqueous solution.
Six male rats were used. On the evening prior to administration, the animals were fasted, with free access to water. During the experimental period, […] had free access to food and water. The animals were administered either by intravenous injection or intragastric gavage, after which the status of the animals was observed and any abnormal manifestations were recorded. Blood was collected via jugular vein puncture at 0.0833, 0.25, 1, 2, 4, 8, and 24 hours following intravenous administration; and at 0.25, 0.5, 1, 2, 4, 6, 8, and 24 hours following intragastric gavage. […]
A standard curve was established using the internal standard method, with the theoretical concentrations of the standard curve as the abscissa and the peak area ratio (peak area of test compound / peak area of internal standard) as the ordinate. […] Unknown samples were calculated via the standard curve. Pharmacokinetic parameters were calculated using the non-compartmental analysis (NCA) model of WinNonlin 8.2 software and presented in the report. […]

In brackets after ≈: the same amount, converted by molar mass.

`COc1cnc(Cl)cc1-c1cc(C)ncc1C(=O)Nc1nnc(OC[C@H]2COCCO2)s1` [Ref. 1, reference compound] yielded a solubility in series [1] (24 hours) of 0.031 mg/mL (≈ 64.9 µM).
The molecule `[2H]C([2H])([2H])O[C@@H](C)c1ccc(CS(=O)(=O)NC(=O)c2ccc(C([2H])([2H])[2H])cc2-c2cc(C(F)F)ncc2OC)cc1` [cpd-16, (S)-2-(2-(Difluoromethyl)-5-methoxypyridin-4-yl)-N-((4-(1-(methoxy-d3)ethyl)benzyl)sulfonyl)-4-(methyl-d3)benzamide] registered a solubility at 24 h in series [1] of 0.669 mg/mL (≈ 1310 µM).
Turning to `[2H]C([2H])([2H])O[C@@H](C)c1ccc(CS(=O)(=O)NC(=O)c2ccc(C([2H])([2H])[2H])cc2-c2cc(Cl)ncc2OC)cc1` [cpd-17, (S)-2-(2-Chloro-5-methoxypyridin-4-yl)-N-((4-(1-(methoxy-d3)ethyl)benzyl)sulfonyl)-4-(methyl-d3)benzamide], the concentration in solution in series [1] (solubility at 24 h) came to 0.511 mg/mL (≈ 1030 µM). In addition, in series [2], the AUC(0-t) was 11.7 µg·h/mL and the Cmax was found to be 8.3 µg/mL.
